Experimental data: article PMC7198766, “Structure-Activity Studies on the Hypertrehalosemic Hormone II of the Stick Insect Carausius morosus (Phasmatodea): Carbohydrate-Mobilization and Cardio-Stimulatory Activities” (Frontiers in Physiology, 2020)
“And” between values parts separate entries of the source, which are not always exact repeats. Equal values may be shown once. Marks after values point to notes of the source that are not given here.

Assays:
Blaberus discoidalis = tested on: Blaberus discoidalis; parameters: method as in Hayes and Keeley, 1990; details: in vivo assay, cockroach B. discoidalis; ref Hayes and Keeley, 1990; cited from earlier work
[1] = tested on: heart of neck-ligated Carausius morosus; assay: Semi-exposed heart bioassay (heart beat rate); type: in vivo; details: for % Activity relative to the effect of Carmo-HrTH-II (myotropic) / Heart rate, Difference: 20 pmol peptide in 150 μl; for % Activity relative to the effect of Carmo-HrTH-II (myotropic): heart rate increase relative to Carmo-HrTH-II = 100, NS = no significant increase; for Heart rate, Post-application: after application of 20 pmol peptide in 150 μl saline, average of first four counts; for Heart rate, Post-application / Heart rate, Pre-application: neck-ligated stick insects; for Heart rate, Pre-application: in saline before application, semi-exposed heart; for Heart rate, Difference: post- minus pre-application
Experimental: The semi-exposed heart bioassay was carried out as described ([Marco et al., 2018]) with adult stick insects between 1 and 2 months old that were ligated at the neck. Briefly, a ventral incision of the abdomen exposed the ventral cavity with the internal organs; a few drops of stick insect saline (pH 6.6; 15 mM NaCl, 18 mM KCl, 7.5 mM CaCl2, 2 mM HEPES, 50 mM MgCl2, and 184 mM glucose according to [Ejaz and Lange, 2008]) were added to the exposed part. The semi-isolated heart preparation was viewed with a dissecting microscope (12-fold magnification), and the number of observed heart beats (contractions of the heart muscle) was counted during a fixed period using a manual tally counter and a timer. Once the heart had stabilized, saline was replaced with the test solution. For this the peptide stock solution of 5 pmol μl^–1 was diluted with stick insect saline to the desired concentration and a final volume of 150 μl was used for each test.
Heart rates under normal saline served as controls. The change in heart rate after the application of the test solution was calculated as an average of the first four counts and was compared to the average heart rates counted in saline before the application of the test solution. This comparison of change in heart rates was done for all the peptides tested.

Locusta migratoria = tested on: Locusta migratoria; parameters: method as in Gäde, 1990; details: in vivo assay, L. migratoria; ref Gäde, 1990; cited from earlier work
[2] = tested on: ligated 6th instar Indian stick insects (Carausius morosus); assay: Carbohydrate-mobilization (hypertrehalosemic) in vivo assay; details: for % Activity relative to the effect of Carmo-HrTH-II (metabolic): 20 pmol peptide injected, carbohydrate increase relative to Carmo-HrTH-II = 100, NS = no significant increase; for Hemolymph carbohydrates, 90 min: 90 min after injection of 20 pmol peptide in 10 μl; for Hemolymph carbohydrates, 90 min / Hemolymph carbohydrates, Difference: neck-ligated 6th instar nymphs; for Hemolymph carbohydrates, Difference: 90 min minus 0 min, 20 pmol peptide in 10 μl injected; for Hemolymph carbohydrates, 0 min: before injection (0 min), 2 h after neck ligation, group later given 20 pmol peptide in 10 μl, 6th instar nymphs
Experimental: Sixth instar nymphs that were 1–2 days before molting were neck-ligated and used in the hypertrehalosemic in vivo assay as described in detail by [Gäde and Lohr (1982)]. Stock peptide solutions (5 pmol μl^–1) were diluted with distilled water to the desired concentration in 10 μl, which was injected into the stick insect nymphs.
In the first series of experiments, various doses of synthetic Carmo-HrTH-II and corpora cardiaca (CC) extract of C. morosus were used to determine the maximal hypertrehalosemic response of C. morosus. Hemolymph samples were taken from 17 to 18 days old 6th instar nymphs 2 h after they were neck-ligated and then 90 min after either CC extract or synthetic Carmo-HrTH-II was injected. Ligated nymphs injected with distilled water served as controls for handling stress. As depicted in Figures 1A,B, various doses of both Carmo-HrTH-II and CC extract increased the level of carbohydrates in the hemolymph in a dose-dependent manner. A dose of 0.04 pmol of synthetic Carmo-HrTH-II and the equivalent of 0.005 pairs of corpora cardiaca (pCC) were sufficient to give significant increases in hemolymph carbohydrates (p < 0.05). […] Doses of 0.1–0.5 pCC gave an average increase of 5.6 ± 0.6 mg carbohydrates ml^–1 hemolymph (Figure 1B); again, statistical analyses reveal no significant difference between the effect of these doses (p > 0.05).
Based on these pilot experiments, we selected a dose of 20 pmol for testing the analogs of Carmo-HrTH-II since such a dose of our lead compound, Carmo-HrTH-II had achieved maximal hypertrehalosemic activity.

Manduca sexta = tested on: Manduca sexta; parameters: method as in Fox and Reynolds, 1991; Ziegler et al., 1991; details: in vivo assay, ref Fox and Reynolds, 1991, Ziegler et al.; cited from earlier work
[3] = tested on: heart of neck-ligated Carausius morosus; parameters: method as in Marco et al., 2018; details: ref Marco et al., 2018, cited from earlier work
Periplaneta americana = tested on: Periplaneta americana; parameters: method as in Gäde, 1990; details: in vivo assay, P. americana; ref Gäde, 1990; cited from earlier work

| Molecule | Fold less active than the endogenous Bladi-HrTH (Blaberus discoidalis) | % Activity relative to the effect of Carmo-HrTH-II (myotropic) [1] | Heart rate, Post-application [1] | Heart rate, Pre-application [1] | Heart rate, Difference [1] | Activity relative to the endogenous decapeptide Locmi-AKH-I (Locusta migratoria) | % Activity relative to the effect of Carmo-HrTH-II (metabolic) [2] | Hemolymph carbohydrates, 90 min [2] | Hemolymph carbohydrates, Difference [2] | Hemolymph carbohydrates, 0 min [2] | Average increase of hemolymph carbohydrates ([2]; doses of 7.5–60 pmol (plateau, no significant difference between doses), 90 min) | Dose sufficient to give significant increases in hemolymph carbohydrates ([2]; synthetic peptide injected, 17-18 days old ligated 6th instar nymphs, 90 min, p < 0.05) | Activity relative to the endogenous nonapeptide Manse-AKH (Manduca sexta) | Doses that increased the heart beat rate significantly and maximally ([3]; ligated stick insects, synthetic peptide) | Activity relative to the endogenous octapeptides Peram-CAH-I and -II (Periplaneta americana) | Effect on contraction of the heart ([3]; C. morosus heart, dose-dependent) | % Activity relative to the effect of Carmo-HrTH-II (metabolic) ([2]; listed as Ala^10 analog of Carmo-HrTH-II) |
| --- | --- | --- | --- | --- | --- | --- | --- | --- | --- | --- | --- | --- | --- | --- | --- | --- | --- |
| pGlu-Leu-Thr-Phe-Thr-Pro-Asn-Trp-Gly-Thr amide [Carmo-HrTH-II, reference compound] | more than 300 fold | 100% | 53 ± 5 beats min^−1 | 41 beats min^−1 and 41 ± 4 beats min^−1 | 12 ± 5 beats min^−1 | only slightly less active | 100% | 14.9 ± 1.9 mg/mL | 5.4 ± 1.1 mg/mL | 9.4 ± 1.5 mg/mL | 5.2 ± 0.4 mg ml^–1 | 0.04 pmol | as, or slightly more active than the endogenous nonapeptide Manse-AKH | above 6.67 × 10^–8 M | more or less as active | – | – |
| NCC(O)c1ccc(O)cc1 (stereo not shown) [octopamine] | – | – | – | – | – | – | – | – | – | – | – | – | – | – | – | inhibits the contraction of the heart | – |
| Leu-Thr-Phe-Thr-Pro-Asn-Trp-Gly-Thr amide | – | 58% | 46 ± 5 beats min^−1 | 39 ± 6 beats min^−1 | 7 ± 2 beats min^−1 | – | – | 9.5 ± 1.5 mg/mL | 0.7 ± 1.3 mg/mL | 8.8 ± 1.7 mg/mL | – | – | – | – | – | – | – |
| pGlu-Val-Asn-Phe-Thr-Pro-Asn-Trp-Gly-Thr amide [Rommi-CC, naturally-occurring AKH decapeptide bioanalog, reference compound] | – | 150^b % | 57 ± 4 beats min^−1 | 39 ± 3 beats min^−1 | 18 ± 6 beats min^−1 | – | 48% | 10.6 ± 1.6 mg/mL | 2.6 ± 1.5 mg/mL | 8.0 ± 1.4 mg/mL | – | – | – | – | – | – | – |
| pGlu-Leu-Asn-Phe-Thr-Pro-Asn-Trp-Gly-Ser amide [Phymo-AKH, naturally-occurring AKH decapeptide bioanalog, reference compound] | – | 8% | 38 ± 4 beats min^−1 | 37 ± 3 beats min^−1 | 1 ± 1 beats min^−1 | – | – | 10.5 ± 1.4 mg/mL | 0.9 ± 1.7 mg/mL | 9.6 ± 1.8 mg/mL | – | – | – | – | – | – | – |
| pGlu-Leu-Thr-Phe-Thr-Pro-Asn-Trp-Gly-Ala amide [Ala^10-Carmo-HrTH-II] | – | – | 41 ± 5 beats min^−1 | 41 ± 5 beats min^−1 | 0 ± 1 beats min^−1 | – | – | 12.4 ± 1.6 mg/mL | 2.5 ± 1.0 mg/mL | 9.9 ± 2.3 mg/mL | – | – | – | – | – | – | about 50% |
| pGlu-Leu-Thr-Phe-Thr-Pro-Ala-Trp-Gly-Thr amide [Ala^7-Carmo-HrTH-II] | – | – | 39 ± 4 beats min^−1 | 39 ± 4 beats min^−1 | 0 ± 1 beats min^−1 | – | 13% | 12.0 ± 2.2 mg/mL | 0.7 ± 0.6 mg/mL | 11.3 ± 2.0 mg/mL | – | – | – | – | – | – | – |
